Source: US20020111272A1, “Glyphosate-induced male sterility in dicots” (priority 2000, published 2002)

Key:
[1] = system: glyphosate-tolerant variety (RR1445) of Coker 312; experiment: Glyphosate-induced male sterility in cotton, field plots scored for fertility (Example 1); assay type: in vivo
Excerpt: A test was designed to determine whether glyphosate-induced male sterility in cotton could be reliably maintained throughout the blooming period.
The plant material used was a glyphosate-tolerant variety (RR1445) of Coker 312 obtained from Monsanto Co. (St. Louis, Mo.). Seed was planted in 25 foot long, single row plots, with a 38 inch row spacing. The test was replicated four times with treatments applied as follows:
Treatment 1: Single spray at 30 days post planting (“30 DPP”);
Treatment 2: Multiple sprays beginning at 30 DPP and repeating every 10 days (“30 DPP+10 D”)
Treatment 3: Multiple sprays beginning at 30 DPP and repeating every 20 days (“30 DPP+20 D”)
Treatment 4: Unsprayed control.
The sprays consisted of a single 2% solution of Roundup® brand glyphosate (41% formulation), which was equivalent to 20 ml/l, or 22/3 oz/gal. This solution was used in all spray treatments, and was applied to runoff. […] At the onset of bloom (mid-July) and through mid September, each plot was scored for fertility approximately every 5 days as follows:
0=Complete sterility; no pollen present upon rubbing anthers between fingers;
1=Practically no pollen present upon rubbing anthers, no self pollination possible because anthers never shed pollen, male-sterile for all practical purposes;
2=Very little pollen upon rubbing anthers, no natural pollen shed, no self pollination possible, male sterile for all practical purposes;
3=Some pollen present when anthers rubbed, a minimal amount of natural pollen shed on lower anthers, a very small amount of self pollination possible with insect activity;
4=Anthers shed pollen in sufficient amounts at all anther levels to self pollinate;
5=Anthers shed pollen in normal amounts from all anthers.

Paymaster 145 RR = experiment: Crossing block with hand pollination, boll and seed set (Example 2); assay type: in vivo, cotton; conditions: glyphosate applied as in Example 1 (about 64 oz/acre); end of season
Excerpt: A small isolated crossing block was planted with variety Paymaster 145 RR. Glyphosate was applied as indicated in the previous Example. The intention was to maintain male sterility and to cross pollinate (manually) with pollen from another Paymaster variety to produce actual F1 hybrid seed.

[2] = system: PM 2200 RR and PM 2326 RR; experiment: Spray rate test, fertility scores and seed set after hand pollination (Example 3); assay type: in vivo, cotton
Method: A further test was conducted using the varieties PM 2200 RR and PM 2326 RR, in which 4 levels of glyphosate spray rates were applied at 14 day intervals, beginning at 31 days post planting. The rates used were: 0, 16, 24 and 32 ounces/acre of glyphosate. Fertility scores were taken at roughly 2 day intervals during the season to follow male sterility development. At the same time hand pollination was done on 10 flowers in each treatment (all 3 replicates), also at 2 day intervals for a total of “10 crossing days”. This was to determine the amount of seed set under the various spray regimes and thus infer the degree of female sterility, if any, being induced by the glyphosate applications.

DP 5414 RR = experiment: Effect of glyphosate on soybean yield, male sterility assessed from yield (Example 4); assay type: in vivo
Excerpt: (§1) The glyphosate-tolerant soybean varieties DP 7220 RR, DP 6299 RR and DP 5414 RR were planted in replicated four row plots 18 feet in length, at planting and during growing season, end trimmed to 14.5 feet just prior to harvest to remove end effects in yield. Glyphosate (RoundUp® Ultra Max, Monsanto Co.) was applied starting 14 days post planting, with 5 applications at approximately 10 day intervals thereafter. The sprays consisted of a single 2% solution of the RoundUp® Ultra Max commercial glyphosate product, which is a 50% solution of glyphosate. This is equivalent to 16.25 ml/l or 2.17 oz/gal. This solution was used for all treatments, and was applied to runoff. Four rates of application were used: 0 ounces/acre (oz/acre) (control), 13.5 oz/acre (equivalent to the 16 oz/acre of the 41% formulation used in Examples 1-3), 26 oz/acre (equivalent to the 32 oz/acre used for Examples 1-3) and 52 oz/acre (equivalent to the 64 oz/acre used for Examples 1-3).
(§2) The two middle rows of each plot were harvested for yield, calculated in bushels/acre (bu/acre) based on this land area. Statistical significance was determined using a standard single-tailed T-test. Male sterility was assessed based on the yield, because soybean is a […] flower (the flowers never open until after fertilization), and thus is almost completely self-pollinated. A statistically significant reduction in the yield would therefore correlate with a decreased rate of fertilization. Pollen production was not assessed in this experiment, but based on the observations made in cotton (Examples 1-3), it is reasonable to conclude that the decrease in fertilization rate in soybeans was due to a decrease in viable pollen production.

DP 6299 RR = experiment: as above; assay type: in vivo
Excerpt: as §1, §2

DP 7220 RR = experiment: as above; assay type: in vivo
Excerpt: as §1, §2

SMILES: O=C(O)CNCP(=O)(O)O [glyphosate]
- Fertility score ([1]; 30 DPP (single spray at 30 days post planting), 2% Roundup about 64 oz/acre, 58 days post planting, score 0 complete sterility to 5 normal pollen, practical sterility 2.75 or below): 1.00
- Fertility score ([1]; 30 DPP + 10 D (sprays from 30 DPP every 10 days), 2% Roundup about 64 oz/acre, 58 days post planting): 1.00
- Fertility score ([1]; 30 DPP + 10 D, 62 days post planting): 1.00
- Fertility score ([1]; 30 DPP + 10 D, 66 days post planting): 1.00
- Fertility score ([1]; 30 DPP + 10 D, 70 days post planting): 1.00
- Fertility score ([1]; 30 DPP + 10 D, 75 days post planting): 1.00
- Fertility score ([1]; 30 DPP + 10 D, 80 days post planting): 1.25
- Fertility score ([1]; 30 DPP + 10 D, 85 days post planting): 1.25
- Fertility score ([1]; 30 DPP + 10 D, 90 days post planting): 1.25
- Fertility score ([1]; 30 DPP + 10 D, 104 days post planting): 1.25
- Fertility score ([1]; 30 DPP + 20 D (sprays from 30 DPP every 20 days), 2% Roundup about 64 oz/acre, 58 days post planting): 1.00
- Fertility score ([1]; 30 DPP + 20 D, 62 days post planting): 1.75
- Fertility score ([1]; 30 DPP + 20 D, 66 days post planting): 2.5
- Fertility score ([1]; 30 DPP + 20 D, 70 days post planting): 2.75
- Fertility score ([1]; 30 DPP + 20 D, 75 days post planting): 2.5
- Fertility score ([1]; 30 DPP + 20 D, 80 days post planting): 1.75
- Fertility score ([1]; 30 DPP + 20 D, 85 days post planting): 1.75
- Fertility score ([1]; 30 DPP + 20 D, 90 days post planting): 1.50
- Fertility score ([1]; 30 DPP + 20 D, 104 days post planting): 1.50
- Fertility score ([1]; 30 DPP single spray, 62 days post planting): 3.00
- Fertility score ([1]; 30 DPP single spray, 66 days post planting): 3.75
- Fertility score ([1]; 30 DPP single spray, 70 days post planting): 4.00
- Fertility score ([1]; 30 DPP single spray, 75 days post planting): 4.25
- Fertility score ([1]; 30 DPP single spray, 80 days post planting): 4.50
- Fertility score ([1]; 30 DPP single spray, 85 days post planting): 5.00
- Fertility score ([1]; 30 DPP single spray, 90 days post planting): 5.00
- Fertility score ([1]; 30 DPP single spray, 104 days post planting): 5.00
- Adverse effects of the multiple sprays (other than male sterility) ([1]; throughout the season, about 64 oz/acre): No adverse effects
- Induction of male sterility ([1]; treatment 2 (30 DPP+10 D), about 64 oz/acre): adequate to induce sterility
- Induction of male sterility ([1]; treatment 3 (30 DPP+20 D), about 64 oz/acre): adequate to induce sterility
- Boll set of hand pollinated flowers (female sterility) (Paymaster 145 RR): practically all hand pollinated flowers had not set viable bolls
- Female sterility ([2]; 24 oz/acre rate at roughly 10 day intervals (best effect)): minimal or no female sterility
- Male sterility ([2]; all rates used: 16, 24 and 32 ounces/acre, 14 day intervals from 31 days post planting): produced male sterility
- Boll and hybrid seed set after hand pollination ([2]; all the spray rates tested (16, 24, 32 oz/acre)): Full, mature bolls bearing hybrid seed were produced
- Level of male sterility induced ([2]; both varieties PM 2200 RR and PM 2326 RR, small varietal difference): adequate for hybrid production
- Male sterility (assessed from yield) (DP 5414 RR; 13.5 to 52 oz/acre): complete male-sterility was not achieved
- Average Difference from Control (DP 5414 RR; application rate 13.5 oz./acre): 2.05 oz./acre
- Yield (DP 5414 RR; application rate 13.5 oz./acre): 32.53 bu/acre
- Average Difference from Control (DP 5414 RR; application rate 26 oz./acre): 8.30 oz./acre
- Yield (DP 5414 RR; application rate 26 oz./acre): 26.28 bu/acre
- Average Difference from Control (DP 5414 RR; application rate 52 oz./acre): 8.65 oz./acre
- Yield (DP 5414 RR; application rate 52 oz./acre): 25.93 bu/acre
- Male sterility (assessed from yield) (DP 6299 RR; 13.5 to 52 oz/acre): complete male-sterility was not achieved
- Average Difference from Control (DP 6299 RR; application rate 13.5 oz./acre): 1.23 oz./acre
- Yield (DP 6299 RR; application rate 13.5 oz./acre): 36.45 bu/acre
- Average Difference from Control (DP 6299 RR; application rate 26 oz./acre): 9.65 oz./acre
- Yield (DP 6299 RR; application rate 26 oz./acre): 28.03 bu/acre
- Average Difference from Control (DP 6299 RR; application rate 52 oz./acre): 10.18 oz./acre
- Yield (DP 6299 RR; application rate 52 oz./acre): 27.50 bu/acre
- Male sterility (assessed from yield) (DP 7220 RR; 13.5 to 52 oz/acre): complete male-sterility was not achieved
- Average Difference from Control (DP 7220 RR; application rate 13.5 oz./acre): 4.05 oz./acre
- Yield (DP 7220 RR; application rate 13.5 oz./acre): 35.95 bu/acre
- Average Difference from Control (DP 7220 RR; application rate 26 oz./acre): 8.27 oz./acre
- Yield (DP 7220 RR; application rate 26 oz./acre): 31.73 bu/acre
- Average Difference from Control (DP 7220 RR; application rate 52 oz./acre): 11.55 oz./acre
- Yield (DP 7220 RR; application rate 52 oz./acre): 28.45 bu/acre
